In ChEMBL document CHEMBL1145133, “Thienyl and phenyl alpha-halomethyl ketones: new inhibitors of glycogen synthase kinase (GSK-3beta) from a library of compound searching” (J Med Chem, 2003):

Legend:
[1] = molecular target: Glycogen synthase kinase-3 beta (Homo sapiens, UniProt P49841); assay: Inhibitory activity against glycogen synthase kinase-3 (GSK-3beta).
[2] = molecular target: T1, cAMP-dependent protein kinase (PKA) (Homo sapiens, UniProt P22694+P17612+P22612); assay: Inhibitory activity against protein kinase A (PKA ); assay type: protein assay
[3] = molecular target: T1, cAMP-dependent protein kinase (PKA); assay: Inhibition of protein kinase A (PKA); assay type: protein assay

Glycogen synthase kinase-3 beta, sequence (P49841 whole entry): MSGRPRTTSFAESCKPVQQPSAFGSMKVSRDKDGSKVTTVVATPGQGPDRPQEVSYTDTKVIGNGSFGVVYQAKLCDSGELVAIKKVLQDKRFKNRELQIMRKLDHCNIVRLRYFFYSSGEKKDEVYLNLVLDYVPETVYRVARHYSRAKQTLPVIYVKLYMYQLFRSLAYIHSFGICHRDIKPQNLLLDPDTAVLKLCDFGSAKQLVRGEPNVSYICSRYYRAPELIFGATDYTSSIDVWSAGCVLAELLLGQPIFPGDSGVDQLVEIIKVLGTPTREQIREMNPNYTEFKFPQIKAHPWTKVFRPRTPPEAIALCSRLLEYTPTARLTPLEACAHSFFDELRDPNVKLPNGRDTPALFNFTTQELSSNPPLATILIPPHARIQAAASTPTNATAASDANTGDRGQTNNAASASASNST

Row | SMILES | IC50 [1] | IC50 [2] | IC50 [3]
1 | O=C(CCl)c1c(Br)sc(Br)c1Br | 1 µM | – | –
2 | O=C(CBr)c1ccc(-c2ccccc2)cc1 | 2.5 µM | > 100 µM | –
3 | Cc1ccsc1C(=O)CCl | 75 µM | – | –
4 | O=C(CCl)c1ccc(Br)s1 | 10 µM | > 100 µM | –
5 | O=C(CCl)c1cscc1Cl | 25 µM | > 100 µM | –
6 | CC(=O)c1ccc(C(=O)CCl)s1 | 50 µM | – | –
7 | O=C(CCl)c1ccc(Cl)s1 | 10 µM | > 100 µM | –
8 | CC(=O)c1csc(C(=O)CCl)c1 | 8 µM | > 100 µM | –
9 | Cc1c(C(=O)CCl)csc1C(=O)CCl | 5 µM | > 100 µM | –
10 | O=C(CCl)c1c(Br)sc(Cl)c1Cl | 2 µM | – | > 100 µM
11 | O=C(CCl)c1cc(Br)cs1 | 3 µM | – | –
12 | Cc1csc(C(=O)CCl)c1 | > 100 µM | – | –
13 | O=C(CCl)c1cccs1 | 50 µM | – | –
14 | O=C(CCl)c1cc(Cl)c(Cl)s1 | 2.5 µM | – | –
15 | O=C(CBr)c1ccc(Br)cc1 | 0.5 µM | > 100 µM | –
16 | O=C(CCl)c1cc(Br)c(Br)s1 | 1 µM | > 100 µM | –
17 | O=C(CCl)c1cc(Cl)sc1Cl | 5 µM | > 100 µM | –
18 | O=C(CCl)c1csc(C(=O)CCl)c1 | 1.5 µM | > 100 µM | –
19 | O=C(CCl)c1ccccc1 [PHENACYL CHLORIDE] | 50 µM | – | –
20 | Cc1sc(C(=O)CCl)cc1C(=O)CCl | 5 µM | – | –
21 | O=C(CCl)c1ccc(Cl)cc1 | 2.5 µM | > 100 µM | –
22 | O=C(CCl)c1scc(Br)c1Br | 0.5 µM | > 100 µM | –
23 | Cc1ccc(C(=O)CCl)s1 | > 100 µM | – | –
24 | O=C(CBr)c1ccccc1 | 5 µM | > 100 µM | –
25 | Cc1cc(C(=O)CCl)c(C)s1 | > 100 µM | – | –
